What all share (test): Kinase selectivity, DiscoverX scanMAX Kinase assay panel (% control)
Holding throughout (assay type): binding

Experiment [1] deals with T1, kinases of the scanMAX Kinase assay panel (Homo sapiens, UniProt P42680).
T1 construct: purchased DiscoverX Co. (contract measurement) scanMAX Kinase assay panel
T1 sequence (P42680 1-631): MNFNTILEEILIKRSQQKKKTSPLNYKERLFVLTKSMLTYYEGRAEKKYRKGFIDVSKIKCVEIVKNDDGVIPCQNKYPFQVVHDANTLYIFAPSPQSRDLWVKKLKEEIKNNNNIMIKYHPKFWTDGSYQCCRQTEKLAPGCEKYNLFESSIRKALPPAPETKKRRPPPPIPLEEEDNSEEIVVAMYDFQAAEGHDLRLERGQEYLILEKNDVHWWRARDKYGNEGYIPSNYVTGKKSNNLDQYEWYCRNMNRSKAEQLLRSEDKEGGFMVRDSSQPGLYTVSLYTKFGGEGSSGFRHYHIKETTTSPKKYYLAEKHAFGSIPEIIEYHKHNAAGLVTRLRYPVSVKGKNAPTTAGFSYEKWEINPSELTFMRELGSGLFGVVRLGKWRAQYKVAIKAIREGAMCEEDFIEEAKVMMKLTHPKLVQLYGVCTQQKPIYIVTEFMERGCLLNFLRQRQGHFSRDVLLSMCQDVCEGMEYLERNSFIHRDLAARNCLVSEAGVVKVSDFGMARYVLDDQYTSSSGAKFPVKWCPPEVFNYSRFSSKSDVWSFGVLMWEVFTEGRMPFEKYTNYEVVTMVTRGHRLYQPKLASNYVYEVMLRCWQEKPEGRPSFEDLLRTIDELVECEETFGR
The note with it: kinase TEC; 1 uM in DMSO. The method, boiled down: (§1)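 Each enzyme is treated with drug at 1 uM in DMSO, then signal is scaled between a positive control (0%) and DMSO (100%) to give % control. Kinases with % control under 35% are scored as inhibited.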

For experiment [2], the target named is T2, kinases of the scanMAX Kinase assay panel (Homo sapiens, UniProt P29320).
T2 construct: purchased DiscoverX Co. (contract measurement) scanMAX Kinase assay panel
T2 sequence (P29320 21-983): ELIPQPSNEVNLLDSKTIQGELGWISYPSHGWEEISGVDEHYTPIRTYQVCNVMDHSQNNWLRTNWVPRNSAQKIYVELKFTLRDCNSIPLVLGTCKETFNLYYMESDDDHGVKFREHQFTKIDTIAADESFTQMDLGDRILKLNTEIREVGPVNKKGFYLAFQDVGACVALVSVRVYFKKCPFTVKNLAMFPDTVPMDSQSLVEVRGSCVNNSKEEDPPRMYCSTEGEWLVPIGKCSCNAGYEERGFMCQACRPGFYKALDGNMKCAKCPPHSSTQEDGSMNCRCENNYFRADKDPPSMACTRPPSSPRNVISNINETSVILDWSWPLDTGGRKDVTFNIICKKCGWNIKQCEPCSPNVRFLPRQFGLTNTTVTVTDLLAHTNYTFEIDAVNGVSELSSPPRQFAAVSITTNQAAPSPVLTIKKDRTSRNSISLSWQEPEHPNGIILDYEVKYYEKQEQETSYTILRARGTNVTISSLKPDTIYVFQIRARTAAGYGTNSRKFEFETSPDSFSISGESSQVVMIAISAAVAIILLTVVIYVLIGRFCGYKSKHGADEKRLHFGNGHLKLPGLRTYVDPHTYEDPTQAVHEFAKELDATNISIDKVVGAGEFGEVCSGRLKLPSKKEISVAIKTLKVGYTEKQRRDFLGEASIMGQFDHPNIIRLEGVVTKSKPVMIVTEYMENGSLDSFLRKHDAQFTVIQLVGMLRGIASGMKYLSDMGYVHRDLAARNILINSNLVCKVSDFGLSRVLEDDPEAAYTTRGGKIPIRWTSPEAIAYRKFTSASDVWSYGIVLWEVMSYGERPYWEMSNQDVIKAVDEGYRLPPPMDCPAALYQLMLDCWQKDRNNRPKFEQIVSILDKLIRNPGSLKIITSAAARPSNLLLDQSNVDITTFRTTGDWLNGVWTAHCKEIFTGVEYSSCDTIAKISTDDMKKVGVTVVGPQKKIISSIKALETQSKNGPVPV
The note with it: EPHA3; 1 uM. The method, boiled down:
as §1

The target of experiment [3] is T3, kinases of the scanMAX Kinase assay panel (Homo sapiens, UniProt Q9UKE5).
T3 construct: purchased DiscoverX Co. (contract measurement) scanMAX Kinase assay panel
The note with it: kinase TNIK; 1 uM in DMSO. The method, boiled down: as §1

In experiment [4] the target is T4, kinases of the scanMAX Kinase assay panel (Plasmodium falciparum, UniProt P61075).
T4 construct: purchased DiscoverX Co. (contract measurement) scanMAX Kinase assay panel
The note with it: PFPK5(P. falciparum); 1 uM. The method, boiled down:
as §1

Experiment [5] deals with T5, kinases of the scanMAX Kinase assay panel (Homo sapiens, UniProt O00238).
T5 construct: purchased DiscoverX Co. (contract measurement) scanMAX Kinase assay panel
The note with it: BMPR1B; 1 uM. The method, boiled down: as §1

The target in experiment [6] is T6, kinases of the scanMAX Kinase assay panel (Homo sapiens, UniProt Q15375).
T6 construct: purchased DiscoverX Co. (contract measurement) scanMAX Kinase assay panel
The note with it: EPHA7; 1 uM. The method, boiled down: as §1

Experiment [7] has as its target T7, kinases of the scanMAX Kinase assay panel (Homo sapiens, UniProt O75716).
T7 construct: purchased DiscoverX Co. (contract measurement) scanMAX Kinase assay panel
The note with it: kinase STK16; 1 uM in DMSO. The method, boiled down: as §1

Experiment [8] addresses T8, kinases of the scanMAX Kinase assay panel (Homo sapiens, UniProt P00519).
T8 construct: purchased DiscoverX Co. (contract measurement) scanMAX Kinase assay panel
The note with it: 1 uM. The method, boiled down: as §1

The values that follow come from US11208412B2 (DAEGU-GYEONGBUK MEDICAL INNOVATION FOUNDATION, priority 2017, dated 2021).

T3 sequence (Q9UKE5 whole entry): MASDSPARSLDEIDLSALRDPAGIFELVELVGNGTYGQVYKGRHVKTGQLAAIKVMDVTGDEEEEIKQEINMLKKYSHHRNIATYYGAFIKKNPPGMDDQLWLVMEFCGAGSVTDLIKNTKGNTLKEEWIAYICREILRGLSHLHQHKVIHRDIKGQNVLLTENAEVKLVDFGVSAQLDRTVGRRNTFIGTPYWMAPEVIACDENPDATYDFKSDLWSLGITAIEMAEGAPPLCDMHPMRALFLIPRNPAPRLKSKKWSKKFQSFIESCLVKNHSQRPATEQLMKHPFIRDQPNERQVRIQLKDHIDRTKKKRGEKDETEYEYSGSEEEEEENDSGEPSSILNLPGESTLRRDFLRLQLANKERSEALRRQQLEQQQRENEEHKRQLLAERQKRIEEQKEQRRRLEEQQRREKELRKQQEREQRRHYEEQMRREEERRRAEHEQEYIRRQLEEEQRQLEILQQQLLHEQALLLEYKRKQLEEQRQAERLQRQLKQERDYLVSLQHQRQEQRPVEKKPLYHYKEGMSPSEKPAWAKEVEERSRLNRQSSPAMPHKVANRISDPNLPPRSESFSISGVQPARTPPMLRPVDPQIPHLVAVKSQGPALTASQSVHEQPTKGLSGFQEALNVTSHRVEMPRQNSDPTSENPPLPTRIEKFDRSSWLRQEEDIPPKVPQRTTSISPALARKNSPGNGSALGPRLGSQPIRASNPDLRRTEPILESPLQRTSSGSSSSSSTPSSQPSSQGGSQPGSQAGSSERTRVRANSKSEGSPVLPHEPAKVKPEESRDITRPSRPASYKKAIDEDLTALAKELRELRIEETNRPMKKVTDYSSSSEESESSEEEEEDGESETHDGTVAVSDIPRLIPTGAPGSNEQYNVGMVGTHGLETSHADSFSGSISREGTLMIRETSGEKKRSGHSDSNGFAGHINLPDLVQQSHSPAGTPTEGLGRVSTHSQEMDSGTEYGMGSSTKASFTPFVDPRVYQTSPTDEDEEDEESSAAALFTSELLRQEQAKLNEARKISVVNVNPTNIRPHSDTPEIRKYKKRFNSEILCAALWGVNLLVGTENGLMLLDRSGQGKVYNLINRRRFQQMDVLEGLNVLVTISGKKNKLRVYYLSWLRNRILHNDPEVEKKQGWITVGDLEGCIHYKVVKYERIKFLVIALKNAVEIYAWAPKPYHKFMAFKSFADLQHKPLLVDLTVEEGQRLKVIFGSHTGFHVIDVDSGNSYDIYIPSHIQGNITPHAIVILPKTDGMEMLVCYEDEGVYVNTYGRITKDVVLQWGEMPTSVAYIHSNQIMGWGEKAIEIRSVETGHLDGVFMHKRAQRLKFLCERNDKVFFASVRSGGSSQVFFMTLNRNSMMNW
T6 sequence (Q15375 28-998): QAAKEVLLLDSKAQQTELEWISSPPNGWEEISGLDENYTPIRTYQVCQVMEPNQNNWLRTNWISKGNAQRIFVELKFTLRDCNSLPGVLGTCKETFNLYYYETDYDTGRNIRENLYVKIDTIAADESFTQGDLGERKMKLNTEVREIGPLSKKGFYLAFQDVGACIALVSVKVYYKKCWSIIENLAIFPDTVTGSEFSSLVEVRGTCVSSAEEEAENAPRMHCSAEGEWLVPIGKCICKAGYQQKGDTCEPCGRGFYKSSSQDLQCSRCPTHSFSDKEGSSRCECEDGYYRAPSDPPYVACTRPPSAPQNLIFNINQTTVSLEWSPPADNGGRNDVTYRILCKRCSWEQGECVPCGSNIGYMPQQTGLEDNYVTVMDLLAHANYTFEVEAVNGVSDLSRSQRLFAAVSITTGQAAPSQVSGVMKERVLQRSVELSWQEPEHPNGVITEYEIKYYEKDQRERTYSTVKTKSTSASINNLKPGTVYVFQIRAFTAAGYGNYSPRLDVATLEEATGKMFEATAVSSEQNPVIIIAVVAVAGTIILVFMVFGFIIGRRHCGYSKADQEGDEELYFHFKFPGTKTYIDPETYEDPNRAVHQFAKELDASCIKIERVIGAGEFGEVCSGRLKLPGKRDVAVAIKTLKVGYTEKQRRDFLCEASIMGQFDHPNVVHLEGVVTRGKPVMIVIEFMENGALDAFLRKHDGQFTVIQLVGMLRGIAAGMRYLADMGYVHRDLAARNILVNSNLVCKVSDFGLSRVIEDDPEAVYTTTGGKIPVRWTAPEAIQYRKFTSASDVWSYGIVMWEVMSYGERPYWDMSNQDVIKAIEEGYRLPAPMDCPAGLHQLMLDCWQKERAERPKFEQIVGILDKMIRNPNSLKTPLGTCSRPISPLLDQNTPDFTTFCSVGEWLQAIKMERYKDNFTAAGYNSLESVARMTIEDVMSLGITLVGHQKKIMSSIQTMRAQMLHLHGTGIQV
T5 sequence (O00238 14-502): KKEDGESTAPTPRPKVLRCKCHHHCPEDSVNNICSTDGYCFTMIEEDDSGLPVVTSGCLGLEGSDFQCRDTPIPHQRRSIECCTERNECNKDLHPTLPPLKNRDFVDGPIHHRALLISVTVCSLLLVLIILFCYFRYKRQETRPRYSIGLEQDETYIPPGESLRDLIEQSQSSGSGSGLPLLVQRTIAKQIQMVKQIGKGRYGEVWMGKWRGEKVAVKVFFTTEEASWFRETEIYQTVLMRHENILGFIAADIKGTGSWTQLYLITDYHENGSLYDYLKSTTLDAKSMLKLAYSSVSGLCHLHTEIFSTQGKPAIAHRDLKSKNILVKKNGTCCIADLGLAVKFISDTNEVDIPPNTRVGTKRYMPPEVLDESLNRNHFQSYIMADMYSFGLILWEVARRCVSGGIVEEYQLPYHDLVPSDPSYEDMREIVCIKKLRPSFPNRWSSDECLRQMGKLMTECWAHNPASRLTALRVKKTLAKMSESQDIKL
T4 sequence (P61075 whole entry): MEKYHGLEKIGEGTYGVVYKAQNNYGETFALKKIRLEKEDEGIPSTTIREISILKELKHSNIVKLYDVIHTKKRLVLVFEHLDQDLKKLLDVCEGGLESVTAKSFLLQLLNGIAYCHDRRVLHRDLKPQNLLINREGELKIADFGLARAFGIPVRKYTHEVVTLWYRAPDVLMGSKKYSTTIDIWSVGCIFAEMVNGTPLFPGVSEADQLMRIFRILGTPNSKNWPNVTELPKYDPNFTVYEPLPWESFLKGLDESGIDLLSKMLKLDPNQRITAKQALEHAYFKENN
T7 sequence (O75716 whole entry): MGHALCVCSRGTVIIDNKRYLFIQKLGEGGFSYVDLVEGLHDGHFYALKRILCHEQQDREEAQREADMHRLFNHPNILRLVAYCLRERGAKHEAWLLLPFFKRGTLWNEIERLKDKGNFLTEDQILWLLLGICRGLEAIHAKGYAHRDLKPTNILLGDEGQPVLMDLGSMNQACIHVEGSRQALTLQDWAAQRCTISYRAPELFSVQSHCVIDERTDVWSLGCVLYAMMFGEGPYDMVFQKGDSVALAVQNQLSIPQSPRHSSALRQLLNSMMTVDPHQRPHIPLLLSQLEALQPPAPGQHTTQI
T8 sequence (P00519 whole entry): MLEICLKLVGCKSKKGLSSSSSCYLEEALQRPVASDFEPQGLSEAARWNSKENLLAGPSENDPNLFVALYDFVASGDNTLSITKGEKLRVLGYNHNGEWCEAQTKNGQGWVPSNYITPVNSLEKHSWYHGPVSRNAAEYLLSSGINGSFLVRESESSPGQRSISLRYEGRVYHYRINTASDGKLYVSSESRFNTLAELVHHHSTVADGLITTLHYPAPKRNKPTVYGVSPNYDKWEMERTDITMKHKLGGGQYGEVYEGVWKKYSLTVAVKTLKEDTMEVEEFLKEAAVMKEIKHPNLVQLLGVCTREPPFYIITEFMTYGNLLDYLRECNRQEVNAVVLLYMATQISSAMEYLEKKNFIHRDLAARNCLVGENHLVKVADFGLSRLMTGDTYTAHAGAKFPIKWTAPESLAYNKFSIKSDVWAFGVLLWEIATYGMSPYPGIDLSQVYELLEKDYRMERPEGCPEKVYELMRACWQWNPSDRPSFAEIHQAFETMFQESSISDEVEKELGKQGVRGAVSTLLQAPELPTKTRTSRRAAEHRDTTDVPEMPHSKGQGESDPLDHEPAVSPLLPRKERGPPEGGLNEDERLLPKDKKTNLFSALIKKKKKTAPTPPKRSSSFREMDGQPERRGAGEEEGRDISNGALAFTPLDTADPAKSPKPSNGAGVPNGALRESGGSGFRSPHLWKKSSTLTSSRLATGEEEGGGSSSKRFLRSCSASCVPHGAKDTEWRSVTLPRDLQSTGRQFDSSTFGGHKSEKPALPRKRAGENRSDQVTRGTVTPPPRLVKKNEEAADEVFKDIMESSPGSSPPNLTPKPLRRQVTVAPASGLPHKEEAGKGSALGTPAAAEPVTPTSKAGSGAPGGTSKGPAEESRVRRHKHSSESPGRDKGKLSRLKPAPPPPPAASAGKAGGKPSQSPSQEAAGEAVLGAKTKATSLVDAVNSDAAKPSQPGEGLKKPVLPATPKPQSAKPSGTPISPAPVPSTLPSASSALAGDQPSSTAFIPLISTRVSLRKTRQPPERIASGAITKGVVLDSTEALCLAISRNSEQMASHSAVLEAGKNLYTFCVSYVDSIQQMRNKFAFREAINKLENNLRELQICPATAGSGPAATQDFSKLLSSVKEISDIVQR

As for `CNc1nc(Nc2ccc(C(=O)N3CCOCC3)cc2OC)nc2[nH]cc(C#N)c12` [Example 1, 2-((2-methoxy-4-(morpholine-4-carbonyl)phenyl)amino)-4-(methylamino)-7H-pyrrolo[2,3-d]pyrimidine-5-carbonitrile], the remaining binding at 1 µM was found to be 100% in experiment [1]; 92% in experiment [2]; 95% in experiment [3]; 76% in experiment [4]; 98% in experiment [5]; 97% in experiment [6]. The remaining binding at 1 µM in experiment [7] amounted to 74%; in experiment [8] (ABL1-nonphosphorylated), 92%; in experiment [8] (ABL1-phosphorylated), 88%.
Turning to `CC1(Nc2nc(Nc3cnn([C@H]4CCN(C5COC5)C[C@@H]4F)c3Cl)nc3[nH]cc(C#N)c23)CC1` [Example 52, 2-((5-chloro-1-((3S,4S)-3-fluoro-1-(oxetane-3-yl)piperidine-4-yl)-1H-pyrazole-4-yl)amino)((1-methylcyclopropyl)amino)-7H-pyrrolo[2,3-d]pyrimidine-5-carbonitrile], the remaining binding at 1 µM stood at 24% in experiment [1]; 18% in experiment [2]; 3.5% in experiment [3]; 100% in experiment [4]; 22% in experiment [5]; 20% in experiment [6]. The remaining binding at 1 µM in experiment [7] came out at 0.35%; in experiment [8] (ABL1-nonphosphorylated), 6.4%; in experiment [8] (ABL1-phosphorylated), 1.8%.
Take `CCNc1nc(Nc2ccc(C(=O)N3CCC(N4CCOCC4)CC3)cc2OC)nc2[nH]cc(C(F)(F)F)c12` [Example 104, (4-((4-(ethylamino)-5-(trifluoromethyl)-7H-pyrrolo[2,3-d]pyrimidine-2-yl)amino)-3-methoxyphenyl)(4-morpholinopiperidine-1-yl)methanone]: the remaining binding at 1 µM in experiment [1] came out at 86%; in experiment [2], 92%; in experiment [3], 83%; in experiment [4], 100%; in experiment [5], 83%; in experiment [6], 94%. Besides, the remaining binding at 1 µM in experiment [7] stood at 69%; in experiment [8] (ABL1-nonphosphorylated), 91%; in experiment [8] (ABL1-phosphorylated), 63%.
